# Experimental data as given in patent publication US20130210823A1, “METHODS FOR C[…]” (SYNGENTA PARTICIPATIONS AG, priority 2010, published 2013).
# Tested on: Varroa destructor
# Test: Varroa mite contact test on Potter-tower treated Petri dishes
# Assay type: in vivo
# Conditions: adult V. destructor, contact with spray deposit, concentration of formulation 1 × 10^−−4 g, assessed after 72 h
# Source text: Varroa mites came from bee colonies provided by a beekeeper. The mite population is kept in a dedicated apiary. For screening needs adults are collected on the same day as the beginning of experiment, either in beehive cells containing brood of worker bees or drones, or directly on bees emerging during collection.
# Bee nymphs needed to feed adults of Varroa mites during experiments are choosen within the frames from which Varroa is also collected. They are collected at the stage of nymph with white or pink coloured eyes according methology described by Rembold et Kremer (Characterization of postembryonic developmental stages of the female castes of the honey bee, Apis mellifera L. Apidologie 11: 29-38).
# 3 cm diameter Petri dishes were used as confinement material of Varroa mites during experiments. Covers with wire mesh were put on the top of each Petri dish in order to avoid the mites to run away but also to keep favorable humidity for the bee nymph. […]
# After treatment of Petri dishes, five (5) adults of V. destructor collected from the brood were placed in the petri dish. […] During a test 20 Varroa adults are tested for a given compound (4 dishes of 5 individuals).Mortality levels are assessed after 72 h (mites which are able to move their legs are considered as alive). […]
smiles,measurement,value
"CC1=NNC(=O)N(N=Cc2cccnc2)C1 [pymetrozine, 2,3,4,5-tetrahydro-3-oxo-4-[(pyridin-3-yl)methyleneamino]-6-methyl-1,2,4-triazine]",% mortality of Varroa,90%
